The results in this text go back to patent US11466011B2, “Compounds and their use as inhibitors of N-myristoyl transferase” (Imperial College Innovations Limited, priority 2015, dated 2022).

This assay concerns the target Trypanosoma brucei (Tb) N-myristoyl transferase (Trypanosoma brucei brucei, UniProt Q388H8). Kind of assay: Fluorescence-based NMT assay (a), adapted version, TbNMT. The assay is classed as biochemical.

Sequence of Trypanosoma brucei (Tb) N-myristoyl transferase (Q388H8 entry or part of it): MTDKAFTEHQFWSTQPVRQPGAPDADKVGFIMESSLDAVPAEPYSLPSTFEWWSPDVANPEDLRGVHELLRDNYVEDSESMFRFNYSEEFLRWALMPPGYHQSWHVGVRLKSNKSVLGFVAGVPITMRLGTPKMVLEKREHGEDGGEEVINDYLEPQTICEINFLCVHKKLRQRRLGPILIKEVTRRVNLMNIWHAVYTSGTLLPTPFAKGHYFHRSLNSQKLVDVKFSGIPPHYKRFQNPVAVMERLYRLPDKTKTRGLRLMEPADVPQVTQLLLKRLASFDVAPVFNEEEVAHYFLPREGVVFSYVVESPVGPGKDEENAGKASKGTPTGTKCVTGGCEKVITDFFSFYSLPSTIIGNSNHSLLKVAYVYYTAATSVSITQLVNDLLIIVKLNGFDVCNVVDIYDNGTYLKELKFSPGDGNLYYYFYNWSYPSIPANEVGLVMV

In turn, `Cc1nn(C)c(C)c1CCOc1cc(F)ccc1-c1ccc2[nH]nc(CN(C)C)c2c1` [Example 7] showed an IC50 of 0.001 to 0.1 µM.
